Consider 1 substance from patent US20110052667A1, “COMPOSITIONS AND METHODS FOR INHIBITING ANGIOGENESIS AND TUMORIGENESIS” (Sylgen Laboratories, Inc., priority 2007, published 2011).

Experiment [1] deals with human EphB4 promoter. Put plainly: EphB4 promoter luciferase reporter assay in R+ cells (mouse embryo fibroblasts expressing human IGF-I receptor). The class given is cell-based. From the text:
The TAAT motif at position −1365 of the −1500/−7mut construct used in conditions 7-9 was substituted with a TGCT motif by site directed mutagenesis. In FIG. 2, Series 1: Firefly Luciferare signal (pGL3-Luc EphB4 constructs); Seies 2: Renilla Luciferase signal (mock vector); and RLU: Relative Luciferase Units. Conditions: 1-3: −7/−1508 EphB4 promoter region; 4-6: −7/−1028 EphB4 promoter region; 7-9: −7/−1508mut EphB4 promoter construct, wherein: 1. Serum Free, EphB4 promoter −7/−1508; 2. IGF-II, 10 nM, EphB4 promoter −7/−1508; 3.10% FBS, EphB4 promoter −7/−1508; 4. Serum Free, EphB4 promoter −7/−1028; 5. IGF-II, 10 nM, EphB4 promoter −7/−1028; 6.10% FBS, EphB4 promoter −7/−1028; 7. Serum Free, EphB4 promoter −7/−1508mut; 8. IGF-II, 10 nM, EphB4 promoter −7/−1508mut; and 9.10% FBS, EphB4 promoter −7/−1508mut.
In order to establish the role of IGF-II on EphB4 expression, a mouse embryo fibroblast cell line expressing the human IGF-I receptor (R^+ cells) was transiently transfected with three variants of the human EphB4 promoter previously described by Bruhl et al., supra, along with trace amounts of a renilla luciferase mock vector. […] Cell lysates were generated and then assayed for Luciferase activity using a Promega Dual luciferase assay and a Veritas Luminescence reader (Biotek).
A general note: A reporter such as luciferase makes a cellular process visible.

For experiment [2], the system named is human EphB4 promoter. Put plainly: EphB4 promoter luciferase reporter assay in R-InsR-A cells (IGF-IR null embryo fibroblasts expressing human InsR-A). The class given is cell-based. Conditions: IGF-II 10 nM. As to the method:
In FIG. 3, Series 1: Firefly Luciferare signal (pGL3-Luc −1508/−7 EphB4 construct); Series 2: Renilla Luciferase signal (mock vector); and RLU=Relative Luciferase Units. Conditions: 1. R^+ cells (IGF-IR^+); Serum Free, EphB4 promoter −7/−1508; 2. R^+ cells (IGF-IR^+); IGF-II, 10 nM, EphB4 promoter −7/−1508; 3. R-IRA cells (InsR-A^+); Serum Free, EphB4 promoter −7/−1508; 4. R-IRA cells (InsR-A^+); IGF-II, 10 nM, EphB4 promoter −7/−1508.
In order to establish the role of IGF-II on EphB4 expression, a mouse embryo fibroblast cell line expressing the human IGF-I receptor (R^+ cells) was transiently transfected with three variants of the human EphB4 promoter previously described by Bruhl et al., supra, along with trace amounts of a renilla luciferase mock vector. 24 hrs post-trasfection, the cells were serum starved for 12 hrs and then stimulated (or not) with 10 nM IGF-II for 8 hrs. Cell lysates were generated and then assayed for Luciferase activity using a Promega Dual luciferase assay and a Veritas Luminescence reader (Biotek). […]

Entries after “also recorded” stand apart in the source; their conditions may differ.

For “IGF-II: Insulin-like growth factor-II, used at 10 nM to stimulate cells carrying EphB4 promoter reporter constructs”, in the experiment on human EphB4 promoter [1] (10 nM IGF-II), the “EphB4 reporter gene activation, promoter with -1500 to -1028 region deleted (-1028 to -7 construct)” value was “but not when the −1500 to −1028 region is deleted”. For the same substance, the “EphB4 gene activation (reporter gene, full length promoter -1508 to -7)” value in the experiment on human EphB4 promoter [1] (10 nM IGF-II for 8 hrs, Dual luciferase assay, compared with serum (10% FBS)) is “able to stimulate EphB4 gene activation at levels comparable to the ones obtained with serum activation; also recorded: causes the activation of the EphB4 reporter gene”. The “EphB4 gene activation (reporter gene, promoter -7/-1508) through InsR-A” value in the experiment on human EphB4 promoter [2] was “comparable to that obtained through IGF-IR activation”.
